This note sets out measurements from ChEMBL document CHEMBL1201862, “PubChem BioAssay data set” (2004).

Some test systems named below: A549; ACHN; EKVX; IGROV-1; KM12; NCI-H522; NCI/ADR-RES; OVCAR-4; RXF 393; SF-268; SF-295; SK-MEL-2; SK-OV-3; SW-620; TK-10; CAKI-1; LOX IMVI; MOLT-4; SK-MEL-5; SN12C.
Holding throughout (assay): NCI tumour cell line growth inhibition, 48 h

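96-well plates; 48 h exposure; 5 concentrations. Endpoints by linear interpolation between flanking doses. Not reached: highest tested concentration assigned. Abbreviation: GI50, concentration required for 50% inhibition of growth.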 Calls of active or inactive are those of the source. Rule as the data show it: active = GI50 up to about 1.1 µM and inactive = higher. A value given as a limit tells only on which side of the number the result lay.

With `N#C/N=[N+](\[O-])c1ccc(C(=O)O)cc1`, the GI50 was > 100 µM (inactive) in the assay with A549; 18.4 µM (inactive) in the assay with ACHN; 18.4 µM (inactive) with EKVX; 43.5 µM (inactive) in the assay with IGROV-1; > 100 µM (inactive) with KM12; 19.5 µM (inactive) with NCI-H522. The GI50 in the assay with NCI/ADR-RES is 19.3 µM (inactive); in the assay on OVCAR-4, 21 µM (inactive); in the assay on RXF 393 it was 16.1 µM (inactive); in the assay with SF-268, 19.4 µM (inactive); with SF-295, > 100 µM (inactive); in the assay on SK-MEL-2 it was 18.7 µM (inactive). Besides, the GI50 in the assay on SK-OV-3 is 18.6 µM (inactive); in the assay on SW-620, 19.9 µM (inactive); in the assay on TK-10, 17.5 µM (inactive).

In the case of `O=C1/C(=C/c2ccc(Oc3ccccc3)cc2)N=C(c2ccccc2)N1c1ccc(S(=O)(=O)Nc2nccs2)cc1`, the GI50 was 25.8 µM (inactive) with A549; 37.2 µM (inactive) in the assay on ACHN; 21.7 µM (inactive) in the assay with CAKI-1; 23.2 µM (inactive) in the assay with EKVX; 5.15 µM (inactive) in the assay with KM12; 21.5 µM (inactive) in the assay with LOX IMVI. Moreover, the GI50 in the assay on MOLT-4 was 12.6 µM (inactive); in the assay on NCI/ADR-RES it was 13.1 µM (inactive); with OVCAR-4, 38.6 µM (inactive); in the assay on RXF 393 it was 17 µM (inactive); in the assay with SF-268 it was 36.8 µM (inactive); in the assay with SF-295, 22.8 µM (inactive). The GI50 in the assay with SK-MEL-2 was 2.63 µM (inactive); in the assay on SK-MEL-5 it was 17.5 µM (inactive); in the assay with SK-OV-3, 27.8 µM (inactive); in the assay on SN12C, 39.8 µM (inactive); with SW-620 it was 13.9 µM (inactive); in the assay on TK-10 it was 26.8 µM (inactive).

Regarding `C=C1CC(C)(COc2ccc3c(C)c(C)c(=O)oc3c2C)OC1=O` (stereo unspecified), the GI50 with A549 was 7.67 µM (inactive); in the assay on ACHN it was 2.33 µM (inactive); in the assay on CAKI-1 it was 1.7 µM (inactive); with EKVX, 5.52 µM (inactive); in the assay with IGROV-1, 1.63 µM (inactive); with KM12, 4.54 µM (inactive). Besides, the GI50 in the assay on LOX IMVI is 1.2 µM (inactive); in the assay on MOLT-4 it was 1.08 µM (active); in the assay on NCI-H522, 1.56 µM (inactive); in the assay on NCI/ADR-RES, 2.46 µM (inactive); in the assay with OVCAR-4, 4.3 µM (inactive); in the assay on SF-268, 4.15 µM (inactive). Further, the GI50 in the assay with SF-295 was 5.19 µM (inactive); in the assay with SK-MEL-2 it was 2.01 µM (inactive); in the assay with SK-MEL-5 it was 1.68 µM (inactive); in the assay with SK-OV-3, 3.05 µM (inactive); in the assay on SN12C it was 2.04 µM (inactive); in the assay on SW-620, 1.29 µM (inactive). For the same molecule, the GI50 in the assay on TK-10 was 1.15 µM (inactive).

Regarding `Cc1ccc(S(=O)(=O)NC(=O)NC(CCCCNC(=N)N)C(=O)O)cc1` (stereo unspecified), the GI50 in the assay on A549, in the assay on ACHN, in the assay on IGROV-1, with KM12, in the assay on LOX IMVI and in the assay on MOLT-4 was > 100 µM (inactive) in each case. Moreover, the GI50 in the assay on NCI-H522, in the assay on NCI/ADR-RES, in the assay with OVCAR-4, in the assay on RXF 393, in the assay with SF-268 and in the assay on SF-295 was > 100 µM (inactive) throughout. The GI50 in the assay with SK-MEL-2, in the assay on SK-MEL-5, in the assay on SK-OV-3, with SN12C, in the assay on SW-620 and in the assay with TK-10 was > 100 µM (inactive) throughout.

Regarding `COc1ccc(OCC(C)(C)O)cc1`, the GI50 with A549, in the assay with CAKI-1, with EKVX, in the assay on IGROV-1, in the assay with KM12 and in the assay on LOX IMVI was > 100 µM (inactive) in each case. Further, the GI50 was > 100 µM (inactive) with MOLT-4; > 100 µM (inactive) in the assay with NCI/ADR-RES; > 62.8 µM (inactive) in the assay with OVCAR-4; > 100 µM (inactive) in the assay with RXF 393; > 100 µM (inactive) in the assay with SF-268; > 100 µM (inactive) with SF-295. In addition, the GI50 in the assay on SK-MEL-2, in the assay on SK-MEL-5, in the assay on SK-OV-3, with SN12C and in the assay on SW-620 was > 100 µM (inactive) in each case.

For the molecule `CN(C)CC1CCCC1=O` (stereo unspecified), the GI50 was 24 µM (inactive) with A549; 3.03 µM (inactive) in the assay with ACHN; 0.139 µM (active) in the assay on CAKI-1; 1.71 µM (inactive) in the assay with EKVX; 7.57 µM (inactive) in the assay on IGROV-1; 1.66 µM (inactive) in the assay on KM12. Moreover, the GI50 with LOX IMVI was 1.57 µM (inactive); with MOLT-4, 0.144 µM (active); in the assay on NCI/ADR-RES it was 20.7 µM (inactive); in the assay on OVCAR-4, 1.97 µM (inactive); in the assay with RXF 393, 2.55 µM (inactive); with SF-268, 5.85 µM (inactive). For the same molecule, the GI50 in the assay with SF-295 is 19.8 µM (inactive); with SK-MEL-2, 5.21 µM (inactive); in the assay on SK-MEL-5, 2.86 µM (inactive); in the assay on SK-OV-3 it was 15.3 µM (inactive); with SN12C it was 1.06 µM (active); with SW-620 it was 0.2 µM (active). Also, in the assay with TK-10, the GI50 is 2.96 µM (inactive).

Consider `C(=C\Nc1ccc(Oc2ccccc2)cc1)/C=N/c1ccc(Oc2ccccc2)cc1`, for which the GI50 is 22.1 µM (inactive) in the assay on A549; 19.6 µM (inactive) with ACHN; 18.7 µM (inactive) in the assay with CAKI-1; 18.4 µM (inactive) in the assay with EKVX; 17.1 µM (inactive) in the assay on IGROV-1; 16.4 µM (inactive) in the assay with KM12. The GI50 with LOX IMVI was 15 µM (inactive); in the assay with MOLT-4, > 10 µM (inactive); in the assay on NCI-H522, 20 µM (inactive); in the assay with NCI/ADR-RES it was 16.9 µM (inactive); in the assay with OVCAR-4, 17.1 µM (inactive); with RXF 393, 20 µM (inactive). Moreover, the GI50 in the assay on SF-268 is 21 µM (inactive); with SF-295 it was 15.9 µM (inactive); with SN12C, 14.8 µM (inactive); with SW-620, 19 µM (inactive); in the assay on TK-10, 18.7 µM (inactive).

On to `Cc1ccc(S(=O)(=O)N/N=C2\C=C[C@]3(CC2)C(=O)N(C)c2ccccc23)cc1`, for which the GI50 with A549, in the assay with ACHN, in the assay with CAKI-1, with EKVX, with IGROV-1 and with KM12 was > 100 µM (inactive) in each case. For the same molecule, the GI50 in the assay with LOX IMVI, with MOLT-4, in the assay on NCI/ADR-RES, in the assay on OVCAR-4, with RXF 393 and in the assay on SF-268 was > 100 µM (inactive) in each case. Moreover, the GI50 in the assay on SF-295, with SK-MEL-2, in the assay on SK-MEL-5, in the assay with SK-OV-3, with SN12C and with SW-620 was > 100 µM (inactive) throughout.

`BrP(NC1CCCCCC1)(c1ccccc1)(c1ccccc1)c1ccccc1`: the GI50 in the assay on A549 was 5.94 µM (inactive); with ACHN it was 3.27 µM (inactive); in the assay on CAKI-1, 3.98 µM (inactive); in the assay on EKVX, 7.14 µM (inactive); with IGROV-1, 3.96 µM (inactive); in the assay on KM12 it was 0.873 µM (active). Besides, the GI50 is 2.36 µM (inactive) in the assay on LOX IMVI; 2.23 µM (inactive) in the assay with NCI-H522; 44 µM (inactive) in the assay with NCI/ADR-RES; 2.2 µM (inactive) in the assay with RXF 393; 2.88 µM (inactive) in the assay with SF-268; 3.03 µM (inactive) in the assay with SF-295. The GI50 is 2.44 µM (inactive) in the assay with SK-MEL-2; 1.59 µM (inactive) with SK-MEL-5; 5.06 µM (inactive) with SN12C; 3.09 µM (inactive) in the assay with SW-620; 6.58 µM (inactive) in the assay on TK-10.

Turning to `Cc1cnc2nc(-c3ccc4ccccc4c3)cc(O)c2c1`, the GI50 in the assay on A549 is 0.625 µM (active); in the assay on ACHN, 0.658 µM (active); in the assay with IGROV-1, 0.843 µM (active); with KM12 it was 0.444 µM (active); with LOX IMVI, 0.728 µM (active); in the assay with MOLT-4 it was 0.431 µM (active). Besides, the GI50 in the assay with NCI-H522 was 0.321 µM (active); in the assay with NCI/ADR-RES, 0.349 µM (active); in the assay on OVCAR-4 it was 0.659 µM (active); with SF-268, 2.81 µM (inactive); in the assay with SK-MEL-2, > 100 µM (inactive); in the assay on SK-OV-3, 0.578 µM (active). Besides, the figures for the GI50 with SN12C, with SW-620 and with TK-10 were 0.966 µM (active), 0.359 µM (active) and 2.4 µM (inactive), respectively.

With `Oc1cc(O)c2c(c1)O[C@H](c1ccc(O)c(O)c1)[C@@H](O)C2` [CIANIDANOL], the GI50 in the assay on A549, in the assay with ACHN, in the assay on CAKI-1, with EKVX, in the assay with IGROV-1 and in the assay on KM12 was > 100 µM (inactive) each time. For the same molecule, the GI50 with LOX IMVI, in the assay with MOLT-4, in the assay with NCI-H522, in the assay on NCI/ADR-RES, in the assay on OVCAR-4 and with SF-268 was > 100 µM (inactive) throughout. The GI50 with SF-295, in the assay on SK-MEL-2, with SK-MEL-5, in the assay with SN12C, in the assay with SW-620 and with TK-10 was > 100 µM (inactive) throughout.
